Data from patent publication EP0781268B1, “DERIVATIVES OF 2-AMINO-1,2,3,4-TETRAHYDRONAPHTHALENE ACTIVE ON THE CARDIOVASCULAR SYSTEM” (ZAMBON GROUP S.p.A., priority 1994, dated 1996).
Structures can show the parent of a compound that is named as a salt.

Legend:
D2 receptor = target: T1, D2 receptor (Rattus norvegicus, UniProt P61169); assay: biochemical; type: binding; conditions: rat striated membranes; [3H]-domperidone 0.3 nM; BSA 0.01%; 37°C for 30 minutes; read-out: Affinity [K1 (nM)] D2 [^3H]-domperidone
T1 construct: from tissue; host or cells: rat brain striatum membranes
T1 sequence (P61169 whole entry): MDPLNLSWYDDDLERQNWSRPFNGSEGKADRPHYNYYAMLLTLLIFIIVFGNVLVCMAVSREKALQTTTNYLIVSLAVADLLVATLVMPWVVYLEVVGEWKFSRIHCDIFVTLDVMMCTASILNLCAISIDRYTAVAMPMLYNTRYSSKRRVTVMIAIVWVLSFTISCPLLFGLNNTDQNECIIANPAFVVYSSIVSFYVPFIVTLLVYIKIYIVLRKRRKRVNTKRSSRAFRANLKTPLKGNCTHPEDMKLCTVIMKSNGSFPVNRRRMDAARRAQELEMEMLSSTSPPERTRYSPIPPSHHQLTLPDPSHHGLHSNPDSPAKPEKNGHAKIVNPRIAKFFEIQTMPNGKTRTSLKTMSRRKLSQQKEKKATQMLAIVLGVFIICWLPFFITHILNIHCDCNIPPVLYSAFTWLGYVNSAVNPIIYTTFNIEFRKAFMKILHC
Protocol: The tissue were homogenized in 50 mM Tris/HCl buffer at pH 7.4 (1:100 w/v).
The homogenate was centrifuged and the pellet resuspended, recentrifuged and resuspended again in 50 mM Tris/HCl buffer at pH 7.4 containing 120 mM NaCl, 5mM KCl, 2 mM CaCl2 and 1 mM MgCl2.
Furthermore, bovine serum albumine (BSA) (0.01%) was added.
The mixture was incubated at 37°C for 30 minutes for each concentration of tested compounds.

D1 receptor = target: T2, D1 receptor (Rattus norvegicus, UniProt P18901); assay: biochemical; type: binding; conditions: rat striated membranes; 0.2 nM [3H]-SCH23390; 37°C for 20 minutes; read-out: Affinity [K1 (nM)] D1 [^3H]-SCH23390
T2 construct: from tissue; host or cells: rat brain striatum membranes
T2 sequence (P18901 whole entry): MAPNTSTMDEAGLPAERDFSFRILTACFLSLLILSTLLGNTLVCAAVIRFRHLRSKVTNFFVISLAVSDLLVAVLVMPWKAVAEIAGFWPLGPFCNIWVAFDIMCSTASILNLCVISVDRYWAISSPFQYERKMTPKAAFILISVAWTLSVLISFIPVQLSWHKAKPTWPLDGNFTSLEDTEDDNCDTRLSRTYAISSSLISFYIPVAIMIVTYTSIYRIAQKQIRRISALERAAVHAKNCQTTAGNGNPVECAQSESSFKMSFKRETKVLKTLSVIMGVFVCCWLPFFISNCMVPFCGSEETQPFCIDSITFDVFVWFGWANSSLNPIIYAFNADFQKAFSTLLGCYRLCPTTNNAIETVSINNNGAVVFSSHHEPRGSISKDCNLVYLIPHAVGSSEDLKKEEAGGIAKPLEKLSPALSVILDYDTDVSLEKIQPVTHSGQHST
Protocol: The conditions of standard incubation (volume 1000 µl) for the test in which [^3H]-SCH23390 was used were the following: 50 mM Tris/HCl buffer (pH.7.4), 0.2 nM [^3H]-SCH23390, a membrane preparation of 130-140 µg proteins/ml.
The mixture was incubated with different concentrations of the tested compounds at 37°C for 20 minutes, filtered under vacuum through Whatman GF/C filters and then washed 4 times with 5 ml of 50 mM Tris/HCl buffer (pH 7.4) cooled with ice.

D2-like (REA) = assay: D2-like activity in the Rabbit Ear Artery (REA) test, isolated arterial rings; set-up: species or system Male New Zealand rabbits; conditions: agonist activity; electrically stimulated ear artery rings (10 Hz, 1 msec, 40-80 mA); compounds cumulatively administered
Protocol: Arterial rings were prepared according to the method described by […] al., Science, 1978, 443 199, modified as follows. Male New Zealand rabbits weighing 2.5-3 Kg were sacrificed by intravenous injection of an excess of pentobarbital sodium and exsanguinated. The two ears were taken away and the central ear artery was dissected into 3 mm long rings. These preparations were set up in a 25 ml organ bath containing Krebs solution (mM/l): NaCl 118, KCl 4.7, CaCl2 2.5, MgSO4 1.2, NaHCO3 25, KH2PO4 1.2, glucose 11.1, equilibrated with 95% O2-5% CO2 and maintained at 35±1°C. Krebs solution was medicated with EDTA (10 μM) to prevent cathecolamine oxydation, desipramine (0.1 μM) and corticosterone (30 μM), to block neuronal and extraneuronal cathecolamine uptake. The preparations were electrically stimulated (10 Hz, 1 msec, 40-80 mA, 500 msec duration) at 5 minutes intervals. The tested compounds were cumulatively administered. Dopamine and dopexamine were used as reference substances.

D1-like (RSA) = assay: D1-like activity in the Rabbit Splenic Artery (RSA) test, isolated arterial rings; conditions: agonist activity; arterial preparations contracted with U46619 0.1 µM; compounds cumulatively administered
Protocol: Arterial rings were prepared according to Semeraro et al., Naunyn. Schmied. Arch. Pharmacol., 1990, 342 539. […] The tested compounds were cumulatively administered. Dopamine and dopexamine were used as reference substances.

[1] = Fitton and Benfield, Drugs, 39(2), 308-330 (1990); cited from earlier work

Row | SMILES | Ki (D2 receptor) | Ki (D1 receptor) | D2-like (REA) pD2 (D2-like (REA)) | D1-like (RSA) pD2 (D1-like (RSA)) | absorption when administered by oral route [1]
1 | Br.Br.CCCN(CCCCCCNCCc1cc(O)cc(O)c1)[C@H]1CCc2c(ccc(O)c2O)C1 [Compound 4, (S)-N-propyl-N-[6-[2-(3,5-dihydroxyphenyl)ethylamino)hexyl]-5,6-dihydroxy-1,2,3,4-tetrahydro-2-naphthylamine dihydrobromide] | 0.1 nM | 33 nM | 10.6 | 8.5 | 
2 | CCCN(CCCCCCNCCc1ccccc1)[C@H]1CCc2c(ccc(O)c2O)C1.Cl.Cl [Compound 10, (S)-N-propyl-N-[6-(2-phenylethylamino)hexyl]-5,6-dihydroxy-1,2,3,4-tetrahydro-2-naphthylamine dihydrochloride] | 0.1 nM | 40 nM | 9.2 | 7.2 | 
3 | Br.Br.CCCN(CCCCCCNCCc1ccc(O)cc1)[C@@H]1CCc2cc(O)c(O)cc2C1 [Compound 14, (R)-N-propyl-N-[6-[2-(4-hydroxyphenyl)ethylamino]hexyl]-6,7-dihydroxy-1,2,3,4-tetrahydro-2-naphthylamine dihydrobromide] |  |  | 9.9 | 7.9 | 
4 | Br.Br.CCCN(CCCCCCNCCc1ccc(O)cc1)[C@H]1CCc2c(ccc(O)c2O)C1 [Compound 2, (S)-N-propyl-N-[6-[2-(4-hydroxyphenyl)ethylamino)hexyl]-5,6-dihydroxy-1,2,3,4-tetrahydro-2-naphthylamine dihydrobromide] | 0.2 nM | 10 nM | 8.8 | 8.4 | 
5 | Oc1ccc(CCNCCCCCCNCCc2ccccc2)cc1O [Dopexamine, dopexamine, reference compound] | 1220 nM |  | 6.3 | 6.1 | not absorbed
6 | Br.Br.CCCN(CCCCCCNCCc1cccc(O)c1)[C@H]1CCc2c(ccc(O)c2O)C1 [Compound 1, (S)-N-propyl-N-[6-[2-(3-hydroxyphenyl)ethylamino)-hexyl]-5,6-dihydroxy-1,2,3,4-tetrahydro-2-naphthylamine dihydrobromide] | 0.5 nM | 21 nM | 8.8 | 8.1 | 
7 | NCCc1ccc(O)c(O)c1 [Dopamine, reference compound] |  |  | 7.8 | 6.4 | not absorbed
8 | CCCN(CCCCCCN(CCC)[C@H]1CCc2c(ccc(O)c2O)C1)CCc1ccc(O)cc1 [Compound 18, (S)-N-propyl-N-[2-(4-hydroxyphenyl)ethyl]-N'-propyl-N'-[2-(5,6-dihydroxy-1,2,3,4-tetrahydro)naphthyl]-1,6-hexandiamine dihydrobromide] | 0.9 nM | 107 nM | 9.2 | 6.6 | 
9 | Br.Br.CCCN(CCCCCCNCCc1ccc(O)c(O)c1)[C@H]1CCc2c(O)cccc2C1 [Compound 6, (S)-N-propyl-N-[6-[2-(3,4-dihydroxyphenyl)ethylamino]hexyl]-5-hydroxy-1,2,3,4-tetrahydro-2-naphthylamine dihydrobromide] |  |  | 9.6 | 7.5 | 
10 | CCCN(CCCCCCN(C)CCc1ccccc1)[C@H]1CCc2c(ccc(O)c2O)C1 [Compound 5, (S)-N-methyl-N-(2-phenylethyl)-N'-propyl-N'-[2-(5,6-dihydroxy-1,2,3,4-tetrahydro)naphthyl]-1.6-hexandiamine dihydrobromide] | 0.3 nM | 69 nM |  |  | 
11 | CCCN(CCCCCCNCCc1ccccc1)[C@H]1CCc2cc(O)c(O)cc2C1 [Compound 11, (S)-N-propyl-N-[6-(2-phenylethylamino)hexyl]-6,7-dihydroxy-1,2,3,4--tetrahydro-2-naphthylamine dihydrochloride] | 0.5 nM | 89 nM | 8.4 | 6.2 | 
12 | CCCN(CCCCCCNCCCc1ccccc1)[C@H]1CCc2c(ccc(O)c2O)C1 [Compound 12, (S)-N-propyl-N-[6-(3-phenylpropylamino)hexyl]-5,6-dihydroxy-1,2,3,4--tetrahydro-2-naphthylamine dihydrochloride] |  |  | 8.6 | 7.1 | 
13 | Br.Br.CCCN(CCCCCCNCCc1ccc(O)c(O)c1)[C@@H]1CCc2cc(O)c(O)cc2C1 [Compound 13, (R)-N-propyl-N-[6-[2-(3,4-dihydroxyphenyl)ethylamino]hexyl]-6,7-dihydroxy-1,2,3,4-tetrahydro-2-naphthylamine dihydrobromide] | 0.8 nM | 43 nM | 9.4 | 7.7 | 
14 | Br.Br.CCCN(CCCCCCNCCc1ccc(O)cc1)[C@H]1CCc2c(O)cccc2C1 [Compound 9, (S)-N-propyl-N-[6-[2-(4-hydroxyphenyl)ethylamino]hexyl]-5-hydroxy-1,2,3,4-tetrahydro-2-naphthylamine dihydrobromide] |  |  | 9.1 |  | 
15 | CCCN(CCCCCCCCNCCc1ccc(O)c(O)c1)[C@H]1CCc2c(ccc(O)c2O)C1 [Compound 7, dihydrobromide] | 0.5 nM | 27 nM |  |  | 
16 | CCCN(CCCCNCCc1ccccc1)[C@H]1CCc2c(ccc(O)c2O)C1 [Compound 8, (S)-N-propyl-N-[4-(2-phenyletylamino)butyl]-5,6-dihydroxy-1,2,3,4--tetrahydro-2-naphthylamine dihydrobromide] | 1 nM | 361 nM | 8.2 | 6.4 | 
17 | Br.Br.CCCN(CCCCCCNCCc1ccc(O)c(O)c1)[C@H]1CCc2c(ccc(O)c2O)C1 [Compound 3, (S)-N-propyl-N-[6-[2-(3,4-dihydroxyphenyl)ethylamino)hexyl]-5,6-dihydroxy-1,2,3,4-tetrahydro-2-naphthylamine dihydrobromide] | 0.5 nM | 21 nM | 9.5 | 8.1 | 
18 | Br.Br.CCCN(CCCCCCNCCc1ccccc1O)[C@H]1CCc2c(ccc(O)c2O)C1 [Compound 15, (S)-N-propyl-N-[6-[2-(2-hydroxyphenyl)ethylamino]hexyl]-5,6-dihydroxy-1,2,3,4-tetrahydro-2-naphthylamine dihydrobromide] | 0.4 nM | 33 nM | 9.2 | 7.3 | 
